In one test the target is T1, human Fpn-GFP fusion (Homo sapiens, UniProt Q9NP59).
T1 construct: expressed in transfected cells; host or cells: HEK-293 cell line #354 (derivative of HEK-293 Tet-ON Advanced, Clontech)
T1 sequence (Q9NP59 1-571): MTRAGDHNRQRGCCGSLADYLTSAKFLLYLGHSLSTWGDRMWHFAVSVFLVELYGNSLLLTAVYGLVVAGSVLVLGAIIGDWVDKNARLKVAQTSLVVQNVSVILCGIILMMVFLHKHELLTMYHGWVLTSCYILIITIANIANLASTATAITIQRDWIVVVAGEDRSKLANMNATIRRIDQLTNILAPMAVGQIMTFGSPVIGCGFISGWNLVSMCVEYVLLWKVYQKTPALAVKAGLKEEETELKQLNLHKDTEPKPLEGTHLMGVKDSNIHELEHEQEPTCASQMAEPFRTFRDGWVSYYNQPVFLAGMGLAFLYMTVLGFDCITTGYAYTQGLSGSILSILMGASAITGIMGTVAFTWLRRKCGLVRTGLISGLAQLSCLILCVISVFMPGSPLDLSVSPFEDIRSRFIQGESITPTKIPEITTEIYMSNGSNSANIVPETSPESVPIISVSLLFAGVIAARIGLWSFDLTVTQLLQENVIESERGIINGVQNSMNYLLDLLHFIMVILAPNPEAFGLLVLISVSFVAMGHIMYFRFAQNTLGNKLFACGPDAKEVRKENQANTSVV
Kind of test: Inhibition of ferroportin mediated iron export activity in an iron response assay (BLAzer). It counts as cell-based.
Conditions: not given
The source says: Intracellular iron levels are indirectly measured in this assay by monitoring the activity of a beta-lactamase (BLA) reporter gene fused to the human ferritin promoter and the associated iron regulatory element (IRE) contained within the 5′ untranslated region of the ferritin mRNA. Expression of ferroportin (Fpn) in such a cell line leads to iron efflux and lower iron levels as reflected by lower activity of the reporter gene. On the other hand, inhibition of Fpn-mediated iron efflux results in elevated cellular iron levels which is detected as increased reporter gene activity. Small molecular weight Fpn inhibitor compounds were tested for dose-dependent effects in this in vitro iron response assay as described below.
The HEK-293 cell line #354 was generated by stable integration of (i) a human Fpn-GFP fusion construct inserted in a derivative of the doxycycline-inducible pTRE-Tight-BI plasmid (Clontech, Cat. 631068) and (ii) a human ferritin promoter-BLA reporter gene into a derivative of the HEK-293 Tet-ON Advanced cell line (Clontech). […] After overnight incubation, 10 μl/well of dilution series of the test compounds were added in quadruplicates and plates were further incubated overnight at 37° C. with 5% CQ. Cells were washed 3 times with HBSS leaving 25 μl per well. BLA activity was detected by adding 5 μl/well of the GeneBlazer reagent CCF4-AM (Invitrogen, Cat. K1085) to the cells. After incubation of the plates in the dark at 18° C. for 60 min., blue and green fluorescence signals were measured in a Safre2 fluorescence plate reader (Tecan) with excitation at 410 nm and emissions at 458 nm (blue) and 522 nm (green). The ratio of blue/green fluorescence as a measure for BLA activity was calculated and EC50 values were determined with the calculated blue/green fluorescence ratios as described for the hepcidin internalization assay.
Usually EC50 stands for the concentration giving half of the maximal effect. On to `CC[C@H](C)[C@@H]1NC(=O)[C@@H](NC(=O)[C@@H](NC(=O)[C@@H]2CCCN2C(=O)[C@H](Cc2ccccc2)NC(=O)[C@H](Cc2c[nH]cn2)NC(=O)[C@@H](NC(=O)[C@@H](N)CC(=O)O)[C@@H](C)O)[C@@H](C)CC)CSSC[C@@H](C(=O)N[C@@H](CCCCN)C(=O)N[C@H](C(=O)O)[C@@H](C)O)NC(=O)[C@@H]2CSSC[C@@H]3NC(=O)[C@@H]4CSSC[C@H](NC(=O)[C@H](Cc5ccccc5)NC1=O)C(=O)N[C@@H](CSSC[C@H](NC(=O)[C@H](CCCCN)NC(=O)[C@H](CO)NC(=O)[C@H](CCCNC(=N)N)NC(=O)[C@H](Cc1c[nH]cn1)NC3=O)C(=O)NCC(=O)N[C@@H](CCSC)C(=O)N2)C(=O)NCC(=O)N4` [hepcidin, reference compound], for which the EC50 is 96 ± 63 nM.

The same test, now with this note: average of multiple measurements; HEK-293 cell line #354; read-out: BLAzer EC50.
As to `O=C(NCc1ncccc1F)c1csc(CCCNCc2nc3ccccc3[nH]2)n1` [Example 134], the EC50 came to 4090 nM.

Regarding `O=C(NCc1ncccc1F)c1coc(C2CN(CCc3nc4ccccc4[nH]3)C2)n1` [Example 208], the EC50 was found to be 500 nM.

For `O=C(NC1CCc2cccnc21)c1csc(CCNCCc2nc3ccccc3[nH]2)n1` (stereo not drawn) [Example 158], the EC50 worked out at 620 nM.

On to `O=C(NCc1ncccc1Cl)c1coc(CCNCc2nc3ccccc3[nH]2)n1` [Example 141], for which the EC50 came to 1110 nM.

Turning to `O=C(NCc1ncccc1Cl)c1csc(CCNCc2nc3ccccc3[nH]2)n1` [Example 82], the EC50 was 760 nM.

Turning to `O=C(NCc1ncccc1F)c1csc(CCNCCc2nc3c(F)cccc3[nH]2)n1` [Example 243], the concentration giving a half-maximal response (EC50) came out at 1400 nM.

`O=C(NCc1ncccc1F)c1ncn(CCNCCc2nc3ccccc3[nH]2)n1` [Example 181]: the EC50 stood at 3720 nM.

As for `O=C(NCc1ncccc1F)c1cnn(CCNCCc2nc3ccccc3[nH]2)c1` [Example 111], the EC50 came to 620 nM.

As for `O=C(NCc1ncccc1F)c1coc(CCNCCc2nc3cc(F)ccc3[nH]2)n1` [Example 250], the EC50 turned out to be 460 nM.

Turning to `O=C(NCc1ccccn1)c1coc(CCNCc2nc3ccccc3[nH]2)n1` [Example 137], the EC50 was found to be 5750 nM.

As for `O=C(NC1CCc2cccnc21)c1csc(CCNCc2nc3ccccc3[nH]2)n1` (stereo not drawn) [Example 39], the EC50 worked out at 2900 nM.

Turning to `O=C(NCc1ncccc1F)c1nc(CCNCCc2nc3ccccc3[nH]2)sc1Cl` [Example 154], the concentration for a half-maximal effect (EC50) was determined as 740 nM.

As for `O=C(NCc1ncccc1F)c1csc(CCNCCc2nc3cc(F)ccc3[nH]2)n1` [Example 120], the EC50 stood at 1600 nM.

For the compound `O=C(NCc1ncccc1F)c1cncc(C2CN(CCc3nc4ccccc4[nH]3)C2)c1` [compound 237], the EC50 came out at 2460 nM.

For the compound `O=C(NCc1ncccc1F)c1cccc(CNCCc2nc3ccccc3[nH]2)c1` [Example 224], the concentration for a half-maximal effect (EC50) worked out at 8200 nM.

With `O=C(NCc1ncccc1F)c1coc(CCNCc2nc3ccccc3[nH]2)n1` [Example 126], the EC50 came to 1260 nM.

As for `O=C(NCc1ncccc1F)c1coc(CCNCCc2nc3c(Cl)cccc3[nH]2)n1` [Example 226], the concentration giving a half-maximal response (EC50) was found to be 2340 nM.

With `O=C(NCc1ncccc1F)c1csc(CNCCc2nc3ccccc3[nH]2)n1` [Example 118], the EC50 turned out to be 2690 nM.

`O=C(NCc1cccnn1)c1nc(CCNCc2nc3ccccc3[nH]2)sc1Cl` [Example 161]: the EC50 was 17200 nM.

For `Cc1oc(CCNCCc2nc3ccccc3[nH]2)nc1C(=O)NCc1ncccc1F` [Example 230], the EC50 was determined as 6380 nM.

For the compound `Cc1cnccc1CNC(=O)c1csc(CCNCc2nc3ccccc3[nH]2)n1` [Example 90], the EC50 was 4030 nM.

On to `O=C(NCc1ncccc1Cl)c1cnn(CCNCc2nc3ccccc3[nH]2)c1` [Example 138], for which the EC50 worked out at 1720 nM.

As to `O=C(NCc1ncccc1F)c1coc(CCNCCc2nc3c(F)cccc3[nH]2)n1` [Example 228], the EC50 amounted to 2120 nM.

For the compound `O=C(NCc1ncccc1F)c1csc(CCNCC(F)(F)c2nc3ccccc3[nH]2)n1` [Example 196], the EC50 was 12700 nM.

On to `O=C(NCc1ncccc1F)c1ncn(CCNCc2nc3ccccc3[nH]2)n1` [Example 169], for which the EC50 turned out to be 8230 nM.

Turning to `O=C(NCc1ncccc1F)c1csc(CCN(CCc2nc3ccccc3[nH]2)CCc2nc3ccccc3[nH]2)n1` [Example 152], the EC50 came to 170 nM.

Regarding `O=C(NCc1ncccc1Cl)c1cnn(CCNCCc2nc3ccccc3[nH]2)c1` [Example 144], the half-maximal effective concentration (EC50) was determined as 470 nM.

Regarding `O=C(NCc1ncc(F)cc1F)c1csc(CCNCCc2nc3ccccc3[nH]2)n1` [Example 116], the EC50 worked out at 2790 nM.

As to `O=C(NCc1cccnn1)c1csc(CCNCCc2nc3ccccc3[nH]2)n1` [Example 122], the EC50 amounted to 4330 nM.

For the compound `O=C(NCc1ncccc1F)c1coc(C2CN(CCc3nc4c(F)cccc4[nH]3)C2)n1` [Example 239], the half-maximal effective concentration (EC50) came out at 880 nM.

Turning to `O=C(NCc1ncccc1F)c1coc(CCNCCc2nc3c(F)cc(F)cc3[nH]2)n1` [Example 249], the EC50 was 1550 nM.

In the case of `O=C(NCc1ncccc1F)c1nc(CCNCc2nc3ccccc3[nH]2)sc1Cl` [Example 151], the EC50 was determined as 720 nM.

For the compound `O=C(NCc1ncccc1F)c1csc(CCNCCc2nc3ccccc3[nH]2)n1` [Example 94], the EC50 came out at 530 nM.

Regarding `O=C(NCc1ccccn1)c1csc(CCNCc2nc3ccccc3[nH]2)n1` [Example 12], the EC50 is 8270 nM.

`O=C(NCc1ncccc1F)c1coc(CCNCCc2nc3ccccc3[nH]2)n1` [Example 127]: the concentration for a half-maximal effect (EC50) came to 420 nM.

(Values after patent US10738041B2, “Ferroportin inhibitors” (Vifor (International) AG, priority 2015, dated 2020).)
